Assay results from patent US6596758B1, “Benzopyrans and benzoxepines, pharmaceutical compositions comprising them and preparation process” (Merck Patent GmbH, priority 1998, dated 2003).
Values belong to the compound of their own block, whether it stands above or below them.

How the values were obtained:
[1] = tested on: PPARγ; assay: PPARγ activation, luciferase reporter (J3TkLuc) in CV1 cells; type: cell-based, green monkey; settings: 36 hours incubation, relative to the control value
Excerpt: (§1) The hypolipidaemic and hypoglycaemic effect of the compounds of the invention results from their ability to activate the PPARα and PPARγ isoforms.
(§2) Analysis of the activation of PPARα and PPARγ is based on the transfection of a DNA allowing the expression of a reporter gene (the gene of luciferase) under the control of the PPARs, either endogenous in the case of PPARγ of exogenous in the case of PPARα. The reporter plasmid J3TkLuc comprises three copies of the response element for PPARs of the human apo A-II gene (Staels, B et al. (1995), J. Clin. Invest., 95, 705-712) which are cloned upstream of the promoter of the thymidine kinase gene of the herpes simplex virus in the plasmid pGL3. This reporter gene was obtained by subcloning, in the plasmid pGL3, the plasmid J3TkCAT described above (Fajas, L et al. (1997), J. Biol. Chem., 272, 18779-18789). […] These cells were inoculated at the rate of 20,000 cells per well (96-well plates) and transfected with 150 ng of reporter DNA complexed with a mixture of lipids. In the case of the SK-Hep1 cells, an expression vector for PPARα, described by Sher, T. et al. (1993), Biochemistry, 32, 5598-5604, is cotransfected. […] At the end of incubation, the cells are lysed and the luciferase activity is measured. […]

[2] = molecular target: T1, PPARα (Homo sapiens, UniProt Q07869); assay: PPARα activation, luciferase reporter (J3TkLuc) in SK-Hep1 cells cotransfected with PPARα expression vector; type: cell-based; settings: 36 hours incubation, relative to the control value
T1 construct: expressed in transfected cells
T1 sequence (Q07869 1-468): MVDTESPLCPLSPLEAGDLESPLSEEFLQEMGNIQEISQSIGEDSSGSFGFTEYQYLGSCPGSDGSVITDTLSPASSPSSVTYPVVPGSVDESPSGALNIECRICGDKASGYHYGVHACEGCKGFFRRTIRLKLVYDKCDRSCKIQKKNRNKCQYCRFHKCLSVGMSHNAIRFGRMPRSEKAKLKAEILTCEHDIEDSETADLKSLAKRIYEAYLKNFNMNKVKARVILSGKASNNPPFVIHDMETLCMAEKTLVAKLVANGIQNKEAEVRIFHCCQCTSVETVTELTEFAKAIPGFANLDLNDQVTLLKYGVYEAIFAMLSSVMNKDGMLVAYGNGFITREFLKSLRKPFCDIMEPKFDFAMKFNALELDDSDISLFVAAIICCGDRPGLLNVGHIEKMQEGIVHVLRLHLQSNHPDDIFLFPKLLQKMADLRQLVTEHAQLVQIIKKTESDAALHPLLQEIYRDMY
Excerpt: as §1, §2

[3] = tested on: pGL3 reporter vector devoid of a PPAR response element; assay: pGL3 reporter vector devoid of a PPAR response element, CV1 cells; type: cell-based, green monkey
Excerpt: (§3) Analysis of the activation of PPARα and PPARγ is based on the transfection of a DNA allowing the expression of a reporter gene (the gene of luciferase) under the control of the PPARs, either endogenous in the case of PPARγ of exogenous in the case of PPARα. The reporter plasmid J3TkLuc comprises three copies of the response element for PPARs of the human apo A-II gene (Staels, B et al. (1995), J. Clin. Invest., 95, 705-712) which are cloned upstream of the promoter of the thymidine kinase gene of the herpes simplex virus in the plasmid pGL3. This reporter gene was obtained by subcloning, in the plasmid pGL3, the plasmid J3TkCAT described above (Fajas, L et al. (1997), J. Biol. Chem., 272, 18779-18789). […] These cells were inoculated at the rate of 20,000 cells per well (96-well plates) and transfected with 150 ng of reporter DNA complexed with a mixture of lipids. In the case of the SK-Hep1 cells, an expression vector for PPARα, described by Sher, T. et al. (1993), Biochemistry, 32, 5598-5604, is cotransfected. After 5, hours, the cells are washed twice and incubated for 36 hours in the presence of the test compound in a fresh culture medium comprising 10% foetal calf serum. At the end of incubation, the cells are lysed and the luciferase activity is measured. This activity is expressed relative to the control value. […]

[4] = tested on: pGL3 reporter vector devoid of a PPAR response element; assay: pGL3 reporter vector devoid of a PPAR response element, SK-Hep1 cells; type: cell-based, human
Excerpt: as §3

[5] = tested on: db/db mice; assay: Antidiabetic and hypolipidaemic activity by the oral route in db/db mice; type: in vivo; settings: 100 mg/kg/day per os
Protocol: The antidiabetic and hypolipidaemic activity of the compounds of formula I [sic] was determined by the oral route in db/db mice.
Two-month-old db/db mice are treated per os for 15 days with the compound of Example 16 (100 mg/kg/day). Each study group comprises seven animals. After treating for three days (D3) and fifteen days (D15), retro-orbital samples are taken after light anaesthesia and fasting for 4 hours.
The following measurements were taken:
quantitative determination of glycaemia (glucose oxidase) at D3 and D15 and of the lipid parameters with regard to the sera at D15 (COBAS): triglycerides, total cholesterol (CHOL), HDL cholesterol (HDL-C) and free fatty acids (FFA) (BioMérieux and Wako Chemicals quantitative determination kit).
The measurements which appear in this table are mean values±standard error.

[6] = day 15, serum, mean ± standard error

Structure (SMILES): CCOC(=O)/C=C(C)/C=C/C1=Cc2ccccc2OC1 [Example 3a]
melting point: 110 to 112 °C

Structure (SMILES): CC(=C/C(=O)O)/C=C/C1=Cc2ccccc2OC1(C)C [Example 5b]
melting point: 176 °C

Structure (SMILES): COc1ccc2c(c1)C(/C=C/C(C)=C/C(=O)O)=CC(C)(C)CO2 [Example 16b, (2E, 4E)-5-(3,3-Dimethyl-7-methoxy-2,3-dihydrobenzoxepin-5-yl)-3-methylpenta-2,4-dienoic acid]
increase of the luciferase signal [1]: 300%
increase of the luciferase signal [2]: 250%
luciferase activity with pGL3 reporter vector devoid of a PPAR response element [3]: inactive
luciferase activity with pGL3 reporter vector devoid of a PPAR response element [4]: inactive
Glycaemia D3, % variation with respect to the control ([5]; day 3): −28%
Glycaemia D3 ([5]; day 3, fasting 4 hours, mean ± standard error): 15.4 ± 3.8 mM
Glycaemia D15, % variation with respect to the control ([5]; day 15): −40%
Glycaemia D15 ([5]; day 15, fasting 4 hours, mean ± standard error): 16.7 ± 4.4 mM
CHOL D15, % variation with respect to the control ([5]; day 15, serum): +19%
FFA, % variation with respect to the control ([5]; day 15, serum): −20%
HDL-C D15, % variation with respect to the control ([5]; day 15, serum): +18%
Triglycerides D15, % variation with respect to the control ([5]; day 15, serum): −68%
CHOL D15 (total cholesterol) [5, 6]: 4.44 ± 0.39 mM
FFA (free fatty acids) [5, 6]: 0.82 ± 0.23 (ns) mM
HDL-C D15 (HDL cholesterol) [5, 6]: 3.50 ± 0.37 mM
Triglycerides D15 [5, 6]: 0.69 ± 0.09 mM

Structure (SMILES): COc1ccc2c(c1)C(/C=C/C(C)=C/C(=O)O)=CC1(CCCCC1)CO2 [Example 34B, (2E, 4E)-5-(Spiro[(7-methoxy-2,3-dihydrobenzo[b]-oxepine)-3,1′-cyclohexane]-5-yl)-3-methyl-penta-2,4-dienoic acid]
melting point: 173 to 174 °C

Structure (SMILES): CC(/C=C/C1=CC(C)(C)COc2cc(C)c(C)cc21)=C\C(=O)O [Example 37B, 3-Methyl-5-(3,3,7,8-tetramethyl-2,3-dihydrobenzo[b]-oxepin-5-yl)penta-2,4-dienoic acid]
melting point: 171 to 173 °C

Structure (SMILES): CCOC(=O)/C=C(C)/C=C/C1=CC(C)(C)COc2cc(-c3ccc(F)cc3)ccc21 [Example 38A, (2E, 4E)-5-[8-(4-Fluorophenyl)-3,3-dimethyl-2,3-dihydrobenzo[b]-oxepin-5-yl]-3-methylpenta-2,4-dienoic acid ethyl ester]
melting point: 113 to 115 °C

Structure (SMILES): COc1ccc2c(c1)OCC(C)(C)C=C2/C=C/C(C)=C/C(=O)O [Example 39B, (2E, 4E)-5-(8-Methoxy-3,3-dimethyl-2,3-dihydrobenzo[b]-oxepin-5-yl)-3-methylpenta-2,4-dienoic acid]
melting point: 178 to 180 °C

Structure (SMILES): CC(/C=C/C1=CC(C)(C)COc2ccc(O)cc21)=C\C(=O)O [Example 44B]
melting point: 206 °C

Structure (SMILES): COc1ccc2c(c1)C(/C=C/C(C)=C/C(=O)O)=CC(C)(C)CS2 [Example 47B, (2E, 4E)-5-(7-Methoxy-3,3-dimethyl-2,3-dihydrobenzo[b]-thiepin-5-yl)-3-methylpenta-2,4-dienoic acid]
melting point: 159 to 161 °C

Structure (SMILES): CCCC(/C=C/C1=CC(C)(C)COc2ccc(OC)cc21)=C\C(=O)O [Example 49B, (2E, 4E)-5-(7-Methoxy-3,3-dimethyl-2,3-dihydrobenzo[b]-oxepin-5-yl)-3-propylpenta-2,4-dienoic acid]
melting point: 174 to 176 °C

Structure (SMILES): COc1ccc2c(c1)C(/C=C/C(C)=C/C(=O)O)=C(C)C(C)(C)CO2 [Example 54B, (2E, 4E)-5-(7-Methoxy-3,3,4-trimethyl-2,3-dihydrobenzo[b]-oxepin-5-yl)-3-methylpenta-2,4-dienoic acid]
melting point: 129 to 130 °C

Further lines, results first:

melting point: 104 to 106 °C
Structure (SMILES): CCCCCCCCCNC1Oc2ccccc2C=C1/C=C/C(C)=C/C(=O)O (stereo not drawn)

melting point: 226 to 228 °C
Structure (SMILES): CC(/C=C/C1=Cc2ccccc2OC1)=C\C(=O)O [Example 3b]

melting point: 164 to 166 °C
Structure (SMILES): CC(/C=C/C1=Cc2ccccc2OC1(C)C)=C\C(=O)O [Example 4b]

melting point: 258 to 260 °C
Structure (SMILES): CC(/C=C/C1=C(c2ccccc2)c2ccccc2OC1)=C\C(=O)O [Example 7b]

melting point: 216 to 218 °C
Structure (SMILES): CC1=C(/C=C/C(C)=C/C(=O)O)COc2ccccc21 [Example 11b]

melting point: 224 to 226 °C
Structure (SMILES): CC(=C/C(=O)O)/C=C/C1=Cc2ccccc2OC1 [Example 12b]

melting point: 200 to 202 °C
Structure (SMILES): CC(/C=C/C1=Cc2ccccc2OC1c1ccccc1)=C\C(=O)O (stereo not drawn) [Example 14b]

melting point: 207 to 209 °C
Structure (SMILES): CC(/C=C/C1=CC(C)(C)COc2cc(-c3ccc(F)cc3)ccc21)=C\C(=O)O [Example 38B, (2E, 4E)-5-[8-(4-Fluorophenyl)-3,3-dimethyl-2,3-dihydrobenzo[b]-oxepin-5-yl]-3-methylpenta-2,4-dienoic acid]

melting point: 145 °C
Structure (SMILES): CC(/C=C/C1=CC(C)(C)COc2ccc(C(C)C)cc21)=C\C(=O)O [Example 40B, (2E, 4E)-5-(7-Isopropyl-3,3-dimethyl-2,3-dihydrobenzo[b]-oxepin-5-yl)-3-methylpenta-2,4-dienoic acid]

melting point: 154 to 156 °C
Structure (SMILES): CCCCCC1C=C(/C=C/C(C)=C/C(=O)O)c2cc(OC)ccc2OC1 (stereo not drawn) [Example 41, (2E, 4E)-5-(7-Methoxy-3-pentyl-2,3-dihydrobenzo[b]-oxepin-5-yl)-3-methylpenta-2,4-dienoic acid]

melting point: 166 to 168 °C
Structure (SMILES): CCC(/C=C/C1=CC(C)(C)COc2ccc(OC)cc21)=C\C(=O)O [Example 43B, (2E, 4E)-3-Ethyl-5-(7-methoxy-3,3-dimethyl-2,3-dihydrobenzo[b]-oxepin-5-yl)penta-2,4-dienoic acid]

melting point: 194 to 196 °C
Structure (SMILES): CC(/C=C/C1=CC(C)(C)COc2ccc(-c3ccc(C(F)(F)F)cc3)cc21)=C\C(=O)O [Example 45B, (2E, 4E)-5-[3,3-Dimethyl-7-(4-(trifluoromethyl)phenyl)-2,3-dihydrobenzo[b]-oxepin-5-yl]-3-methylpenta-2,4-dienoic acid]

melting point: 160 to 162 °C
Structure (SMILES): COc1cccc2c1C(/C=C/C(C)=C/C(=O)O)=CC(C)(C)O2 [Example 46B, (2E, 4E)-5-(5-Methoxy-2,2-dimethyl-2H-chromen-4-yl)-3-methylpenta-2,4-dienoic acid]

melting point: 162 to 163 °C
Structure (SMILES): COc1ccc2c(c1)OC(C)(C)C=C2/C=C/C(C)=C/C(=O)O [Example 48B, (2E, 4E)-5-(7-Methoxy-2,2-dimethyl-2H-chromen-4-yl)-3-methylpenta-2,4-dienoic acid]

melting point: 195 to 196 °C
Structure (SMILES): CC(/C=C/C1=CC(C)(C)COc2ccc(C3CCCCC3)cc21)=C\C(=O)O [Example 50B, (2E, 4E)-5-(7-Cyclohexyl-3,3-dimethyl-2,3-dihydrobenzo[b]-oxepin-5-yl)-3-methylpenta-2,4-dienoic acid]

melting point: 147 to 149 °C
Structure (SMILES): CCCCCC(/C=C/C1=CC(C)(C)COc2ccc(OC)cc21)=C\C(=O)O [Example 52B, (2E, 4E)-5-(7-Methoxy-3,3-dimethyl-2,3-dihydrobenzo[b]-oxepin-5-yl)-3-pentylpenta-2,4-dienoic acid]
